Data on 19 molecules can be found in ChEMBL document CHEMBL1201862, “PubChem BioAssay data set” (2004).

Test [1] can be described thus: THP-1 cell cytotoxicity, dose response, cytotoxicity control for non-replicating M. tuberculosis project (AID 489025). It is filed as functional.
Test [2] can be described thus: HepG2 cell cytotoxicity, dose response, cytotoxicity control for non-replicating M. tuberculosis project (AID 489018). Conditions: Mycobacterium tuberculosis. It is filed as functional.
The nature of test [3]: cells. Type of test: functional.
The nature of test [4]: Vero E6 cell cytotoxicity, dose response, cytotoxicity control for non-replicating M. tuberculosis project, secondary assay (AID 492998). It is filed as functional, VeroE6. The settings on record: Vero C1008.
Another test has as its system Vero. As to the kind of experiment: cells. Type of test: functional. Conditions: Chlorocebus sabaeus.
The target in test [5] is Voltage-dependent T-type calcium channel subunit alpha-1H (Homo sapiens, UniProt O95180). Type of test: functional.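 Note: channel activity triggered by adding a high calcium stimulation buffer.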
The target in test [6] is Glucose-6-phosphate 1-dehydrogenase (Homo sapiens, UniProt P11413). Put plainly: inhibition of Homo sapiens G6PD, dose series – biochemical, fluorescence, selectivity assay for P. falciparum G6PD inhibitor project, dose response (AID 504792). Type of test: functional.
The test system of test [7] is Streptococcus sp. 'group A'. As to the kind of experiment: Streptococcus pyogenes SK(-)GAS viability under kanamycin – luminescence, BacTiterGlo, confirmation, counter-screen for streptokinase expression inhibitor project, dose response (AID 1900). Type of test: functional, organism-based. The settings on record: Streptococcus sp. 'group A'.
Test [8] is described as follows: NIH3T3 cell viability loss – ATP luminescence, mouse fibroblasts, counter-screen, dose response (AID 2010).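 Note: cells exposed to compound for about 90 hours before reading.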 It is filed as functional, cell-based. The settings on record: NIH3T3.
The next test relates to Streptococcus. Put plainly: GAS UMAA2166 growth inhibition – luminescence, BacTiterGlo, counter-screen for streptokinase expression inhibitor project, dose response (AID 1915).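 Note: potency for reduction of bacterial viability or growth.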 It is filed as functional, organism-based. The settings on record: Streptococcus.
Test [9] concerns the target Heat shock protein HSP 90-alpha (Homo sapiens, UniProt P07900). Type of test: functional, organism-based.
The target of another test is T1, Streptokinase A (Streptococcus pyogenes serotype M1, UniProt P10520).
T1 sequence (P10520 whole entry): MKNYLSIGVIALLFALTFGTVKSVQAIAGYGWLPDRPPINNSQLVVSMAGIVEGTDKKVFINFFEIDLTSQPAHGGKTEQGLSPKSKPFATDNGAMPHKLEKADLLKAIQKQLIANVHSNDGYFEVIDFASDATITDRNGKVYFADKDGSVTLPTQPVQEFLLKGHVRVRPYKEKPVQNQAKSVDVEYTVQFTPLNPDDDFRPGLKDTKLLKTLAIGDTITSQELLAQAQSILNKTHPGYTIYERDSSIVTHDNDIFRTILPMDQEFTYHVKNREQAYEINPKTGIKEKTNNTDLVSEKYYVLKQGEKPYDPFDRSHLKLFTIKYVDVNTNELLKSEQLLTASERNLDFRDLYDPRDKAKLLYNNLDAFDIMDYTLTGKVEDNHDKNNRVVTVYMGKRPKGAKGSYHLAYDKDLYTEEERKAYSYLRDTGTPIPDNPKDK
As to the kind of experiment: viability-normalized secreted streptokinase activity reduction – plasminogen activation absorbance, OD405, dose response (AID 1914).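 Note: secreted streptokinase activity via plasminogen activation per viability signal from cell pellet.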 It is filed as functional, Streptococcus pyogenes M1 GAS.

The nature of test [10]: Trypanosoma cruzi growth suppression in host cells – NIH3T3 host cells, beta-gal luminescence, confirmation (AID 2044).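 Note: intracellular parasites grown in NIH/3T3 mouse fibroblasts as host cells; luminescent beta-galactosidase reporter signal from transgenic T. cruzi replicating inside host cells; inhibitors lower the luminescence signal.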 Type of test: functional, cell-based.
Test [11] concerns the target T2, Carboxy-terminal domain RNA polymerase II polypeptide A small phosphatase 1 (Homo sapiens, UniProt Q9GZU7).
T2 sequence (Q9GZU7 whole entry): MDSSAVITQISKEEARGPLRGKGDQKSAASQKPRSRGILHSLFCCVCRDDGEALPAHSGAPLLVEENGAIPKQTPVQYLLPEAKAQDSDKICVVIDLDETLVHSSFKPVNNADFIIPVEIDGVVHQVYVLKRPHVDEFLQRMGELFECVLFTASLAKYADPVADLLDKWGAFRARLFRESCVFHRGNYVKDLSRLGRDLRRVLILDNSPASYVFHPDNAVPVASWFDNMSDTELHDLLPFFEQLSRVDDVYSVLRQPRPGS
As to the kind of experiment: CTDSP1 inhibitors, concentration-response, biochemical, absorbance readout, ultra-high-throughput screen actives (AID 540297). It is filed as functional.

In the next test the target is Nonstructural protein 1 (Influenza A virus, UniProt Q194T2). It is filed as functional, Influenza A virus (A/California/07/2009(H1N1)).
The nature of test [12]: Luminescence Cell-Based Dose Response HTS to Identify Inhibitors of 5'UTR Stem-Loop Driven Prion Protein mRNA Translation in H4 Neuroglioblastoma Cells. [Related pubchem assays: 1827 (Project Summary), 1813 (Primary HTS)]. It is filed as functional.
Test [13] is described as follows: luciferase reporter signal suppression in cells – H4 neuroglioma cells, luminescence, dose response (AID 1990). It is filed as functional, cell-based.
Test [14] is described as follows: alpha-synuclein stem-loop luciferase translation blockers – H4 neuroglioma cells, luminescence, confirmation (AID 1988). Type of test: functional, cell-based.
The target of test [15] is T3, Corticotropin-releasing factor receptor 2/Corticotropin-releasing factor-binding protein (Homo sapiens, UniProt P24387+Q13324).
T3 sequence (Q13324 whole entry): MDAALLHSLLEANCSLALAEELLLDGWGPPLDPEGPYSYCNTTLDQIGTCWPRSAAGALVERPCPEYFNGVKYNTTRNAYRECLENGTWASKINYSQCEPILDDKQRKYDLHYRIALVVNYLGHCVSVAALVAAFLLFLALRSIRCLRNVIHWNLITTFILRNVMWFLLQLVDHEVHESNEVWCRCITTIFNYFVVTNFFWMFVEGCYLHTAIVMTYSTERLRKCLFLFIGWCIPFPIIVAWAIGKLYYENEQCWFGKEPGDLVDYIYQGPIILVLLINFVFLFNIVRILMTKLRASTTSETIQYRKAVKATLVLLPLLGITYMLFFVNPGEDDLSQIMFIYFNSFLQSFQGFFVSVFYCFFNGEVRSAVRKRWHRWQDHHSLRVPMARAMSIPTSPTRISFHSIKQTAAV
T3 sequence (P24387 whole entry): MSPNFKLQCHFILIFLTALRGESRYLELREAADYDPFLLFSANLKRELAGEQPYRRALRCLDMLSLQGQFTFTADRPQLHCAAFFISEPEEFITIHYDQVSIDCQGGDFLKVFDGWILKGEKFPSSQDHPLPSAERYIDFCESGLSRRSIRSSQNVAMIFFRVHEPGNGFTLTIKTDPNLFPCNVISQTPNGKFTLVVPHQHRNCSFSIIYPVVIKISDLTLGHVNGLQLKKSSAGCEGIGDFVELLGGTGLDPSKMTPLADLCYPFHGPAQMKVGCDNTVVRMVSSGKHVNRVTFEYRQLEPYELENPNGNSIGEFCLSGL
As to the kind of experiment: activators of CRF receptor 2 with binding protein – uHTS hits, confirmation (AID 602473). It is filed as functional. Conditions: read-out: EC50_Mean.

In test [16] the target is T3, Corticotropin-releasing factor receptor 2/Corticotropin-releasing factor-binding protein. As to the kind of experiment: Dose Response confirmation of uHTS hits for small molecule antagonists of the CRF-binding protein and CRF-R2 receptor complex. It is filed as functional. Conditions: read-out: IC50_Mean.
A short description of test [17]: fluconazole-exposed Candida albicans growth modulators – fluorescence, retest, confirmation (AID 2467). It is filed as functional, cell-based.
Test [18] is described as follows: cells. Type of test: functional, cell-based.
The nature of test [19]: viability of HCT116 lacking mutant beta-catenin – cell-based, human colon tumor, dose response (AID 1045).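 Note: HCT116 colon tumor cells with beta catenin knocked out; cells exposed to compound for 60 hours.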 It is filed as functional.
The nature of test [20]: viability of PTEN-deleted HCT116 cells – cell-based, HCT116 PTEN knockout, dose response (AID 1047).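 Note: HCT116 colon tumor cells with PTEN knocked out; cells exposed to compound for 60 hours before readout; potency for loss of cell viability measured by luminescence.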 Type of test: functional.
Test [21] in a line: cells. Type of test: functional, cell-based. The source holds these as a separate data set.
Test [22] can be described thus: NIH-3T3 fibroblast cytotoxicity, dose response, cytotoxicity control, cell-based, fluorescence, Alamar Blue, secondary assay (AID 2327).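 Note: NIH-3T3 mouse fibroblasts cultured with fluconazole at 8 µg/mL.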 Type of test: functional. In general terms: The colour change of resazurin is a common sign of viable cells or microbes.
The next test relates to INS1. Put plainly: INS-1E survival protection against cytokine death – cell-based, luminescence, retest, dose response (AID 449756).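 Note: cell death triggered by IL-1 beta plus TNF-alpha plus IFN-gamma mixture; protective hits raise ATP signal compared with cytokine alone wells.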 It is filed as functional. The settings on record: Rattus norvegicus.
Test [23] in a line: microbe, parasite or virus in culture. Type of test: functional. The settings on record: Mycobacterium tuberculosis.

Active and inactive are the calls of the source. A value given as a limit tells only on which side of the number the result lay.

Chain of Nonstructural protein 1 (Q194T2 whole entry): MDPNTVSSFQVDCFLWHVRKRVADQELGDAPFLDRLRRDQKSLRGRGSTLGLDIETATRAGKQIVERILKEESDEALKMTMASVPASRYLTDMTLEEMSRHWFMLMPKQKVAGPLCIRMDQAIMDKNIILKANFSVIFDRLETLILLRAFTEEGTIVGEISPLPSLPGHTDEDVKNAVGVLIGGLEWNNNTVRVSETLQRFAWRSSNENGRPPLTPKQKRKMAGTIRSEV
Chain of Glucose-6-phosphate 1-dehydrogenase (P11413 whole entry): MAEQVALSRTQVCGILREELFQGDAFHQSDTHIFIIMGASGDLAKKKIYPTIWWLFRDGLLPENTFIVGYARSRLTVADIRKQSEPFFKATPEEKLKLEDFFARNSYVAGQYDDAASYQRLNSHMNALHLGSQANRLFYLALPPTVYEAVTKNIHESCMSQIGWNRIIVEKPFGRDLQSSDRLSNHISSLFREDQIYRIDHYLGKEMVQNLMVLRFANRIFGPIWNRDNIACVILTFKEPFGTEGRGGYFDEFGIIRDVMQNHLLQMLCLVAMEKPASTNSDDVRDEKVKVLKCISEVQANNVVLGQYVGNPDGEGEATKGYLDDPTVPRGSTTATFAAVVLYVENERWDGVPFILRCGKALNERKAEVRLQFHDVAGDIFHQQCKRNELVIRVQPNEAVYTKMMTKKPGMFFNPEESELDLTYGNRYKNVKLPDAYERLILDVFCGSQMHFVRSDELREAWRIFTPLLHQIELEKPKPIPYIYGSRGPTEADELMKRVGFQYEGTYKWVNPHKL
Chain of Voltage-dependent T-type calcium channel subunit alpha-1H (O95180 whole entry): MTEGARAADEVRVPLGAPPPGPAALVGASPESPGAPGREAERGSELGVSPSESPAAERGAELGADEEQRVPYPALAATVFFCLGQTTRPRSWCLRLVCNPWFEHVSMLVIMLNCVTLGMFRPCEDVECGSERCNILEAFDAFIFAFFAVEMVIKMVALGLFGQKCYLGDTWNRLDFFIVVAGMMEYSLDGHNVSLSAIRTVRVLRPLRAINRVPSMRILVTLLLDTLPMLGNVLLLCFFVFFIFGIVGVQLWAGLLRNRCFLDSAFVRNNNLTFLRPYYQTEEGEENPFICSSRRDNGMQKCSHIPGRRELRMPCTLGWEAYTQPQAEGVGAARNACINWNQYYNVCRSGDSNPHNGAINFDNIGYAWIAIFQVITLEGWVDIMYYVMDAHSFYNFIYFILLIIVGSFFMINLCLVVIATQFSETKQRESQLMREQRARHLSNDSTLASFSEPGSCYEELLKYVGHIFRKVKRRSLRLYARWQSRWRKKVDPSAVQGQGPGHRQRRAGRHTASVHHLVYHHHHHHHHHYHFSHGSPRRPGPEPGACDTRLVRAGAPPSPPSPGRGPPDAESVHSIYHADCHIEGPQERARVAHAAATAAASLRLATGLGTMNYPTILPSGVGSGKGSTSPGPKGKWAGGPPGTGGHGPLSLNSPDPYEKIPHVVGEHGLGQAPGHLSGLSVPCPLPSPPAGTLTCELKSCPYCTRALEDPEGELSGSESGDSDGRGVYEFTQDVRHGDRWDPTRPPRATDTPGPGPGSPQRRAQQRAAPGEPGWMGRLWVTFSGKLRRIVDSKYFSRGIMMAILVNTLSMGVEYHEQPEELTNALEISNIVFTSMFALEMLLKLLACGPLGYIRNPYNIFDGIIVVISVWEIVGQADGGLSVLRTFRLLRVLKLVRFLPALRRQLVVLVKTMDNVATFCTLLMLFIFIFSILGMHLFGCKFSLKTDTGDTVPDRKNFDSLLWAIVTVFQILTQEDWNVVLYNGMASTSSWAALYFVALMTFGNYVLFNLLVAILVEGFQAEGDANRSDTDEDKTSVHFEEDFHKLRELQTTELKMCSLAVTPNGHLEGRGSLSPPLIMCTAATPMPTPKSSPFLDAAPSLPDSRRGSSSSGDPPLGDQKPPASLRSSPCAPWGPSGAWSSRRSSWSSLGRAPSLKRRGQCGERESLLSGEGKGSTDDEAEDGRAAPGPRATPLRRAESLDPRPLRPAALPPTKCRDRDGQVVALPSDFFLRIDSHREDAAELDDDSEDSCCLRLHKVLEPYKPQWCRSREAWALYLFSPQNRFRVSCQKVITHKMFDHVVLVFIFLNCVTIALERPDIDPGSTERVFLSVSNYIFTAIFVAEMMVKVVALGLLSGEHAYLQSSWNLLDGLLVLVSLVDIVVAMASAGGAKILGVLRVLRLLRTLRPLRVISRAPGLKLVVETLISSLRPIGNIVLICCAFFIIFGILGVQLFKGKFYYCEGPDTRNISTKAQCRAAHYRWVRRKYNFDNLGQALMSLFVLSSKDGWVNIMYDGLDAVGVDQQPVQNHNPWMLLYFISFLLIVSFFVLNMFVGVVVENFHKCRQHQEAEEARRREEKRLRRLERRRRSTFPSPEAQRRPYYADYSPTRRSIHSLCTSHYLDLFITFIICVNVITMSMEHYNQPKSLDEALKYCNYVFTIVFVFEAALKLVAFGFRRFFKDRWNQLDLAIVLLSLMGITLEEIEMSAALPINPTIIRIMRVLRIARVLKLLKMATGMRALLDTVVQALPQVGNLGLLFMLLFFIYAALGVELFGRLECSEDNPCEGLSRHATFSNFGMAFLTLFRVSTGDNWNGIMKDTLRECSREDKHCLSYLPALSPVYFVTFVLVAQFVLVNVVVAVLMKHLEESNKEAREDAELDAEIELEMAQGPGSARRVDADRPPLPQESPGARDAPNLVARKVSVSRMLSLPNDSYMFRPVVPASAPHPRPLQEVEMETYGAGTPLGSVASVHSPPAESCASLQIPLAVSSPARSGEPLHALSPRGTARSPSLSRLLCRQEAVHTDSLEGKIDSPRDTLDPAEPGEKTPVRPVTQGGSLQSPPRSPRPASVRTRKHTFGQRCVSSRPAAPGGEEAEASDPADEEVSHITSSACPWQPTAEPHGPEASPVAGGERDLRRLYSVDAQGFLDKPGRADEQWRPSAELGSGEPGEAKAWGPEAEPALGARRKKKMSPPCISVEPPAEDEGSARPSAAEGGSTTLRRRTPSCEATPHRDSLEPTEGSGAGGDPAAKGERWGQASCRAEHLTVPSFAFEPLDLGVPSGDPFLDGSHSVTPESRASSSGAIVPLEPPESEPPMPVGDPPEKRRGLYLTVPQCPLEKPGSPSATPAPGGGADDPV

Take `Cc1cc(NCc2ccccn2)n2nc(C)c(-c3ccccc3)c2n1`: the CC50 in test [1] was 6.19 µM (active); in test [2], 3.11 µM (active); in test [4], 13.6 µM (active). The IC50 in the test “cells [3]” was 3.2 µM (active).

With `CC(C)Cn1c(SCC(=O)c2ccc(Cl)s2)nnc1-c1ccco1`, the CC50 in the test with Vero was > 25 µM (active). The EC50 in test [5] was 10.6 µM (active).

Consider `Cc1cccc(OCC(=O)NCC(=O)N/N=C/c2ccccc2)c1`, for which, in test [6], the IC50 is > 80 µM (inactive).

`CCCc1cc(NCc2ccccn2)n2nc(C)c(-c3ccccc3)c2n1`: the CC50 in test [1] is 10.2 µM (active); in test [2] it was 4.48 µM (active); in test [4], > 20 µM (active). Besides, the EC50 in test [7] was 6.67 µM (active); in test [8], 8.73 µM (active); in the test on Streptococcus, 21.7 µM (active); at Streptokinase A, > 150 µM (not active); in test [10], 3.58 µM (active). Also, in test [9], the AC50 is 1.58 µM (active). Moreover, the IC50 in the test “cells [3]” is 1.18 µM (active).

Consider `N[C@@H](C(=O)N[C@@H]1C(=O)N2C(C(=O)O)=C(Cl)CS[C@H]12)c1ccccc1` [CEFACLOR ANHYDROUS], for which the EC50 in test [7] is 0.559 µM (active); in the test with Streptococcus, 1.32 µM (active); on Streptokinase A, > 150 µM (not active). Further, the IC50 in test [11] was 7.18 µM (active).

Regarding `O=C(NNC(=O)c1ccc2ccccc2c1)c1ccc(Cl)c(Cl)c1`, the IC50 in test [11] was > 80 µM (inactive).

In the case of `CC1CCN(CCc2nc3cc(NC(=O)COc4ccc(Cl)cc4)ccc3n2C)CC1`, the figures for the CC50 in test [1] and in test [2] were 26.1 µM (active) and > 20 µM (active), respectively. The IC50 in the test “cells [3]” is 28.1 µM (active).

`Cc1cccc(C(=O)Nc2sc3c(c2C(=O)O)CCCC3)c1`: in [6], the IC50 is > 80 µM (inactive).

Take `CCOC(=O)c1ccc(N2C(=O)CC(N(C)CCc3ccc(OC)c(OC)c3)C2=O)cc1` (stereo unspecified): the AC50 in test [9] was 3.1 µM (active).

For the molecule `Cc1c(C(=O)NCC2COc3ccccc3O2)oc2ccc(S(=O)(=O)N(C)C3CCCCC3)cc12` (stereo unspecified), the EC50 in test [8] was > 60 µM (not active); in test [5] it was 5.64 µM (active); in test [10], 1.89 µM (active).

Turning to `CN(C)c1ccc(N=Nc2ccc3ncccc3c2)cc1`, the IC50 on Nonstructural protein 1 is 20.4 µM (active).

Turning to `CCC(=O)Nc1nc2ccccc2n1Cc1ccc(C)cc1`, the results for the EC50 in test [12], in test [13] and in test [14] were 11.8 µM (active), 15.1 µM (active) and 8.69 µM (active), respectively. The CC50 in test [1] is > 40 µM (active); in [2], > 20 µM (active); in test [4], 16.1 µM (active). In the test “cells [3]”, the IC50 was 0.7 µM (active).

`Cc1cccc(C)c1NC(=O)C(Cl)C(=O)c1ccccc1` (stereo unspecified): the AC50 in test [9] was 0.855 µM (active).

In the case of `CC1=[N+](C)c2c(ccc3cccnc23)C1(C)C`, the IC50 on Nonstructural protein 1 is > 100 µM (active).

As for `CN1C(=O)C(N=Nc2ccc([N+](=O)[O-])cc2)SC1=S` (stereo unspecified), the IC50 is > 80 µM (inactive) in test [6] and < 0.368 µM (active) in test [16]. Besides, the EC50 in test [15] is 1.69 µM (active). The AC50 in [9] was 14.5 µM (active).

`O=C(CSc1ccccn1)Nc1ccc2c(c1)C(=O)c1ccccc1C2=O`: the IC50 in [11] was 3.08 µM (active).

As to `CN1CCN(Cc2cc(COCc3ccccc3)c3cccnc3c2O)CC1`, the EC50 was 0.8 µM (active) in test [17]; 8.1 µM (active) in test [12]; 7.62 µM (active) in test [8]; 7.01 µM (active) in [13]; 7.14 µM (active) in “cells [18]”; 3.23 µM (active) in [19]. Further, the EC50 in test [14] is 5.83 µM (active); in test [20], 3.11 µM (active); in the test “cells [21]”, > 350 µM (not active); in test [22], > 150 µM (inconclusive); in test [10], 1.37 µM (active). The IC50 at Nonstructural protein 1 is 3.98 µM (active).

Take `CC(=O)Oc1c(C)cc(Cl)cc1C(=O)Nc1ccc([N+](=O)[O-])cc1Cl`: the AC50 in the test on INS1 is 1.37 µM (active). The CC50 in test [1] was 5.03 µM (active); in [2], 7.96 µM (active); in test [23] it was 1.54 µM (active); in test [4], 3.96 µM (active). Also, in “cells [3]”, the IC50 is 9.46 µM (active). The EC50 in [19] is 2.16 µM (active); in [20] it was 1.99 µM (active).

Consider `O=C(Cn1cnc2scc(-c3cccc([N+](=O)[O-])c3)c2c1=O)NCc1ccco1`, for which, in test [11], the IC50 was 3.15 µM (active).

Broadly, the AC50 is the concentration at which the activity in the assay is half-maximal.
